# Experimental data as given in US20070117743A1, “New antitumoral compounds” (priority 2003, published 2007).
# Like-named read-outs stand apart in the source and are kept apart here. Where a SMILES comes first, the peptide text is derived from it. Bridges are numbered along the chain shown (N, C = ends). [ ]: non-standard residue; d: D form. The star is where a group is joined. d(aIle) = CC[C@H](C)[C@@H](N)C(=O)O; d(aThr) = C[C@@H](O)[C@@H](N)C(=O)O; Hexanoyl(5-Me) = CC(C)CCCC(=O)*; Orn = NCCC[C@H](N)C(=O)O; Dhb = C/C=C(\N)C(=O)O
# Assays:
# Format in all cases: cell-based, human
# [1] = system: SK-MEL-28; experiment: SRB colorimetric assay of cell growth and viability, SK-MEL-28; details: 48 hours exposure; for CC50: read-out: LC50 MEL-28
# [2] = system: SK-BR-3; experiment: SRB colorimetric assay of cell growth and viability, SK-BR-3; details: 48 hours exposure
# [3] = system: K-562; experiment: SRB colorimetric assay of cell growth and viability, K-562; details: 48 hours exposure; for CC50: read-out: LC50 K-562
# [4] = system: A-549; experiment: SRB colorimetric assay of cell growth and viability, A-549; details: 48 hours exposure; for GI50: read-out: GI50 A-549; for CC50: read-out: LC50 A-549
# [5] = system: PANC-1; experiment: SRB colorimetric assay of cell growth and viability, PANC-1; details: 48 hours exposure; for CC50: read-out: LC50 PANC-1
# [6] = system: HeLa-APL; experiment: SRB colorimetric assay of cell growth and viability, HeLa-APL; details: 48 hours exposure; for CC50: read-out: LC50 HELA-APL
# [7] = system: IGROV-1; experiment: SRB colorimetric assay of cell growth and viability, IGROV-1; details: 48 hours exposure
# [8] = system: HeLa; experiment: SRB colorimetric assay of cell growth and viability, HeLa; details: 48 hours exposure; for CC50: read-out: LC50 HELA
# [9] = system: IGROV-ET; experiment: SRB colorimetric assay of cell growth and viability, IGROV-ET; details: 48 hours exposure; for CC50: read-out: LC50 IGROV-ET
# [10] = system: LoVo; experiment: SRB colorimetric assay of cell growth and viability, LoVo; details: 48 hours exposure; for CC50: read-out: LC50 LOVO
# [11] = system: LNCaP; experiment: SRB colorimetric assay of cell growth and viability, LNCaP; details: 48 hours exposure; for GI50: read-out: GI50 LN-caP; for CC50: read-out: LC50 LN-caP
# From the text: The finality of this assay is to interrupt the growth of a “in vitro” tumor cell culture by means a continued exhibition of the cells to the sample to be testing.
# This form of the assay employs 96 well cell culture microplates of 9 mm diameter (Faircloth, 1988; Mosmann, 1983). Most of the cell lines are obtained from American Type Culture Collection (ATCC) derived from different human cancer types.
# Cells are maintained in RPMI 1640 10% FBS, supplemented with 0.1 g/l penicillin and 0.1 g/l streptomycin sulfate and then incubated at 37° C., 5% CO2 and 98% humidity. For the experiments, cells were harvested from subconfluent cultures using trypsin and resuspended in fresh medium before plating.
# Cells are seeded in 96 well microtiter plates, at 5×10^3 cells per well in aliquots of 195 μL medium, and they are allowed to attach to the plate surface by growing in drug free medium for 18 hours. Afterward, samples are added in aliquots of 5 μL in a ranging from 10 to 10^−8 μg/mL, dissolved in DMSO:EtOH:PBS (0.5:0.5:99). After 48 hours exposure, the antitumor effect are measured by the SRB methodology: cells are fixed by adding 50 μL of cold 50% (wt/vol) trichloroacetic acid (TCA) and incubating for 60 minutes at 4° C. Plates are washed with deionized water and dried. One hundred μL of SRB solution (0.4% wt/vol in 1% acetic acid) is added to each microtiter well and incubated for 10 minutes at room temperature. Unbound SRB is removed by washing with 1% acetic acid. Plates are air dried and bound stain is solubilized with Tris buffer. Optical densities are read on a automated spectrophotometric plate reader at a single wavelength of 490 nm.
# The values for mean+/− SD of data from triplicate wells are calculated. Some parameters for cellular responses can be calculated: GI=growth inhibition, TGI=total growth inhibition (cytostatic effect) and LC=cell killing (cytotoxic effect).
# [12] = system: DU-145; experiment: SRB colorimetric assay of cell growth and viability, DU-145; details: 48 hours exposure
# [13] = system: HT-29; experiment: SRB colorimetric assay of cell growth and viability, HT-29; details: 48 hours exposure; for GI50: read-out: GI50 HT-29; for CC50: read-out: LC50 HT-29
# [14] = system: LoVo-Dox; experiment: SRB colorimetric assay of cell growth and viability, LoVo-Dox; details: LOVO-DOX, 48 hours exposure
# How it was run: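 Here, cells grow drug-free for 18 h, then receive sample dilutions from 10 down to 10^−8 μg/mL for 48 h at 37° C. Protein-bound SRB is solubilized in Tris and quantified at 490 nm.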
structure (smiles),measurement,setting,value
"C/C=C1\NC(=O)[C@H](Cc2ccccc2)NC(=O)[C@@H](C(C)C)NC(=O)[C@@H]([C@@H](C)CC)NC(=O)[C@H](NC(=O)[C@H](NC(=O)[C@H](CCCN)NC(=O)[C@H]2CCCN2C(=O)[C@H](NC(=O)[C@H](CC(C)C)NC(=O)[C@@H](NC(=O)[C@H](NC(=O)CCCC(C)C)C(C)C)[C@@H](C)O)C(C)C)[C@@H](C)CC)[C@@H](C)OC(=O)[C@H](C(C)C)NC1=O [Compound 45, [Leu^11]-KF] ({Hexanoyl(5-Me)}-[dV]TL[dV][dP][Orn][d(aIle)][d(aThr)][d(aIle)][dV]F[Dhb]V; ester 8-C)",GI50,[1],1.03 µM
same,TGI MEL-28,[1],2.05E−06 Molar
same,CC50,[1],4.11 µM
same,GI50,[2],0.163 µM
same,LC50,[2],1.68 µM
same,TGI SK-BR-3,[2],4.10E−07 Molar
same,GI50,[3],1.49 µM
same,TGI K-562,[3],3.10E−06 Molar
same,CC50,[3],≥ 6.4 µM
same,TGI A-549,[4],1.90E−06 Molar
same,GI50,[4],0.925 µM
same,CC50,[4],3.93 µM
same,GI50,[5],2.32 µM
same,TGI PANC-1,[5],6.70E−06 Molar
same,CC50,[5],6.7 µM
same,GI50,[6],0.912 µM
same,TGI HELA-APL,[6],1.94E−06 Molar
same,CC50,[6],4.13 µM
same,GI50,[7],0.332 µM
same,LC50 (concentration causing 50% net cell killing),[7],4.02 µM
same,TGI IGROV,[7],1.23E−06 Molar
same,GI50,[8],0.938 µM
same,TGI HELA,[8],2.16E−06 Molar
same,CC50,[8],4.98 µM
same,GI50,[9],0.421 µM
same,TGI IGROV-ET,[9],1.30E−06 Molar
same,CC50,[9],3.69 µM
same,GI50,[10],0.113 µM
same,TGI LOVO,[10],2.32E−07 Molar
same,CC50,[10],0.476 µM
same,TGI LN-caP,[11],2.35E−06 Molar
same,GI50,[11],1.02 µM
same,CC50,[11],5.44 µM
same,GI50,[12],0.731 µM
same,LC50 (concentration causing 50% net cell kill),[12],3.54 µM
same,TGI DU-145,[12],1.61E−06 Molar
same,TGI HT-29,[13],1.17E−06 Molar
same,GI50,[13],0.316 µM
same,CC50,[13],3.66 µM
"C/C=C1\NC(=O)[C@H](Cc2ccccc2)NC(=O)[C@@H](C(C)C)NC(=O)[C@@H]([C@@H](C)CC)NC(=O)[C@H](NC(=O)[C@H](NC(=O)[C@H](CCCN)NC(=O)[C@H]2CCCN2C(=O)[C@H](NC(=O)[C@@H](NC(=O)[C@@H](NC(=O)[C@H](NC(=O)c2ccc(C(F)(F)F)cc2)C(C)C)[C@@H](C)O)C(C)C)C(C)C)[C@@H](C)CC)[C@@H](C)OC(=O)[C@H](C(C)C)NC1=O [Compound 21, [p-CF3Bza^14]-KF]",GI50,[1],0.897 µM
same,TGI MEL-28,[1],1.85E−06 Molar
same,CC50,[1],3.8 µM
same,GI50,[2],0.111 µM
same,LC50,[2],0.543 µM
same,TGI SK-BR-3,[2],2.46E−07 Molar
same,GI50,[3],6.5 µM
same,TGI K-562,[3],6.50E−06 Molar
same,CC50,[3],6.5 µM
same,TGI A-549,[4],4.06E−07 Molar
same,GI50,[4],0.146 µM
same,CC50,[4],1.68 µM
same,GI50,[5],1.3 µM
same,TGI PANC-1,[5],3.11E−06 Molar
same,CC50,[5],6.5 µM
same,GI50,[6],0.504 µM
same,TGI HELA-APL,[6],1.48E−06 Molar
same,CC50,[6],3.67 µM
same,GI50,[7],0.177 µM
same,LC50 (concentration causing 50% net cell killing),[7],3.45 µM
same,TGI IGROV,[7],7.22E−07 Molar
same,GI50,[8],0.319 µM
same,TGI HELA,[8],1.28E−06 Molar
same,CC50,[8],3.91 µM
same,GI50,[9],0.169 µM
same,TGI IGROV-ET,[9],7.61E−07 Molar
same,CC50,[9],2.83 µM
same,GI50,[10],0.0917 µM
same,TGI LOVO,[10],1.92E−07 Molar
same,CC50,[10],0.404 µM
same,TGI LN-caP,[11],1.30E−06 Molar
same,GI50,[11],0.339 µM
same,CC50,[11],3.52 µM
same,GI50,[12],0.241 µM
same,LC50 (concentration causing 50% net cell kill),[12],3.28 µM
same,TGI DU-145,[12],1.22E−06 Molar
same,TGI HT-29,[13],2.59E−07 Molar
same,GI50,[13],0.114 µM
same,CC50,[13],0.585 µM
"C/C=C1\NC(=O)[C@H](Cc2ccccc2)NC(=O)[C@@H](C(C)C)NC(=O)[C@@H]([C@@H](C)CC)NC(=O)[C@H](NC(=O)[C@H](NC(=O)[C@H](CCCN)NC(=O)[C@@H]2CCCN2C(=O)[C@H](NC(=O)[C@@H](NC(=O)[C@@H](NC(=O)[C@H](NC(=O)CC[C@@H](C)CC)C(C)C)[C@@H](C)O)C(C)C)C(C)C)[C@@H](C)CC)[C@@H](C)OC(=O)[C@H](C(C)C)NC1=O [Compound 59, [Pro^9, (4S)-MeHex^14]-KF]",GI50,[1]; SRB,≥ 6.76 µM
same,TGI MEL-28,[1]; SRB,6.76E−06 Molar
same,CC50,[1]; SRB,≥ 6.76 µM
same,GI50,[3]; K-562,≥ 6.76 µM
same,TGI K-562,[3]; K-562,6.76E−06 Molar
same,CC50,[3]; K-562,≥ 6.76 µM
same,TGI A-549,[4]; A-549,6.76E−06 Molar
same,GI50,[4]; A-549,≥ 6.76 µM
same,CC50,[4]; A-549,≥ 6.76 µM
same,GI50,[5]; PANC-1,≥ 6.76 µM
same,TGI PANC-1,[5]; PANC-1,6.76E−06 Molar
same,CC50,[5]; PANC-1,≥ 6.76 µM
same,GI50,[6]; HELA-APL,≥ 6.76 µM
same,TGI HELA-APL,[6]; HELA-APL,6.76E−06 Molar
same,CC50,[6]; HELA-APL,≥ 6.76 µM
same,GI50,[7]; SRB,≥ 6.76 µM
same,LC50 (concentration causing 50% net cell killing),[7]; SRB,≥ 6.76 µM
same,TGI IGROV,[7]; SRB,6.76E−06 Molar
same,GI50,[8]; HELA,≥ 6.76 µM
same,TGI HELA,[8]; HELA,6.76E−06 Molar
same,CC50,[8]; HELA,≥ 6.76 µM
same,GI50,[9]; SRB,≥ 6.76 µM
same,TGI IGROV-ET,[9]; SRB,6.76E−06 Molar
same,CC50,[9]; SRB,≥ 6.76 µM
same,GI50,[10]; LOVO,5.28 µM
same,TGI LOVO,[10]; LOVO,6.76E−06 Molar
same,CC50,[10]; LOVO,≥ 6.76 µM
same,TGI LN-caP,[11]; SRB,6.76E−06 Molar
same,GI50,[11]; SRB,4.52 µM
same,CC50,[11]; SRB,≥ 6.76 µM
same,GI50,[12]; SRB,≥ 6.76 µM
same,LC50 (concentration causing 50% net cell kill),[12]; SRB,≥ 6.76 µM
same,TGI DU-145,[12]; SRB,6.76E−06 Molar
same,GI50,[14],≥ 6.76 µM
same,TGI LOVO-DOX,[14],6.76E−06 Molar
same,CC50,[14]; read-out: LC50 LOVO-DOX,≥ 6.76 µM
same,TGI HT-29,[13]; HT-29,6.76E−06 Molar
same,GI50,[13]; HT-29,≥ 6.76 µM
same,CC50,[13]; HT-29,≥ 6.76 µM
